Results as given in PMC7290285 (Viruses, 2020).
Where two headings read alike, the source gives them in different places.

Test system: ecotropic pseudo-typed lentiviral particles (luciferase) in PM1-mCat1 cells
Test: Luciferase-based viral integration assay using PM1-mCat1 cells
[1] = Human immunodeficiency virus 1, read-out: IC50 (in µM), viral integration assay

| SMILES | IC50 [1] | also measured |
| --- | --- | --- |
| O=S(=O)(c1ccc(Oc2ncnc3scc(-c4ccc(F)cc4)c23)cc1)N1CCOCC1 [T5413794, FC1=CC=C(C=C1)C1=CSC2=C1C(OC1=CC=C(C=C1)S(=O)(=O)N1CCOCC1)=NC=N2] | 6.91 µM |  |
| O=C(Nc1ccccc1N1CCCC1)c1cc(S(=O)(=O)N2CCOCC2)ccc1F [T6382120, FC1=C(C=C(C=C1)S(=O)(=O)N1CCOCC1)C(=O)NC1=C(C=CC=C1)N1CCCC1] | 2.86 µM |  |
| CC(C)CCn1cnc2c1c(=O)n(CC(=O)NC1CC1)c(=O)n2Cc1ccccc1 [T5351795, CC(C)CCN1C=NC2=C1C(=O)N(CC(=O)NC1CC1)C(=O)N2CC1=CC=CC=C1] | 4.64 µM |  |
| C=CCNC(=O)CN1CCN(c2nc3ccccc3s2)CC1 [T6471356, C=CCNC(=O)CN1CCN(CC1)C1=NC2=C(S1)C=CC=C2] | 2.37 µM |  |
| O=S(=O)(c1ccc(CSc2ncnc3scc(-c4ccc(F)cc4)c23)o1)N1CCCC1 [T6366633, FC1=CC=C(C=C1)C1=CSC2=C1C(SCC1=CC=C(O1)S(=O)(=O)N1CCCC1)=NC=N2] | 1.67 µM |  |
| O=C(Nc1ccccc1O)c1ccccc1Br [T6043692, OC1=C(NC(=O)C2=C(Br)C=CC=C2)C=CC=C1] | 4.11 µM |  |
| O=C(COc1ccccc1-c1ccccc1)NCc1ccccc1CN1CCOCC1 [T5781151, O=C(COC1=C(C=CC=C1)C1=CC=CC=C1)NCC1=C(CN2CCOCC2)C=CC=C1] | 6.94 µM |  |
| O=C(CSc1nnc(-c2cccc(Cl)c2)n1-c1ccccc1C(F)(F)F)NCc1ccco1 [T5258076, FC(F)(F)C1=C(C=CC=C1)N1C(SCC(=O)NCC2=CC=CO2)=NN=C1C1=CC(Cl)=CC=C1] | 4.76 µM |  |
| COc1ccc(C2CCCN2C(=O)C2CC(=O)N(c3ccccc3F)C2)c(OC)c1 (centres unmarked) [T6496714, COC1=CC(OC)=C(C=C1)C1CCCN1C(=O)C1CN(C(=O)C1)C1=C(F)C=CC=C1] | 2.44 µM |  |
| CS(=O)(=O)c1ccc(NC(=O)CNc2ccccc2-c2ccccc2)cc1 [T5950416, CS(=O)(=O)C1=CC=C(NC(=O)CNC2=C(C=CC=C2)C2=CC=CC=C2)C=C1] | 2.08 µM |  |
| COC(=O)c1ccccc1NS(=O)(=O)c1c(F)cc(F)cc1Br [T6007055, COC(=O)C1=C(NS(=O)(=O)C2=C(Br)C=C(F)C=C2F)C=CC=C1] | 1.35 µM |  |
| O=C(COc1ccccc1-c1ccccc1)NCc1ccccc1Cn1cccn1 [T5945790, O=C(COC1=C(C=CC=C1)C1=CC=CC=C1)NCC1=C(CN2C=CC=N2)C=CC=C1] | 6.78 µM |  |
| Cc1nnc(C(=O)NC(C)(C)c2nc(C(=O)NCc3ccc(F)cc3)c(O)c(=O)n2C)o1 [Raltegravir, reference compound] |  | IC50 (Human immunodeficiency virus 1, read-out: IC50s during a 6-month period): 0.0021 to 0.0079 µM |
| Cc1ccc(F)c(NC(=O)c2ccc(OC(F)F)cc2)c1 [T5506295, CC1=CC(NC(=O)C2=CC=C(OC(F)F)C=C2)=C(F)C=C1] | 1.77 µM |  |
| C=CCOC(=O)C1=C(C)NC(=S)NC1c1ccc(C(C)C)cc1 (centres unmarked) [T6203208, CC(C)C1=CC=C(C=C1)C1NC(=S)NC(C)=C1C(=O)OCC=C] | 4.37 µM |  |
| COc1ccccc1N1CCN(C(=O)c2cc(Cl)ccc2O)CC1 [T6328287, COC1=C(C=CC=C1)N1CCN(CC1)C(=O)C1=C(O)C=CC(Cl)=C1] | 3.89 µM |  |
| O=C(Nc1ccc2c(c1)OCO2)c1cccc(N2CCCC2=O)c1 [T5821319, O=C(NC1=CC2=C(OCO2)C=C1)C1=CC(=CC=C1)N1CCCC1=O] | 1.58 µM |  |
| O=C(CNc1ccccc1-c1ccccc1)Nc1ccccc1Cl [T5943324, ClC1=C(NC(=O)CNC2=C(C=CC=C2)C2=CC=CC=C2)C=CC=C1] | 7.79 µM |  |
| O=C(Nc1ccc2c(c1)OCCCO2)c1cccc(N2CCCC2=O)c1 [T5609721, O=C(NC1=CC2=C(OCCCO2)C=C1)C1=CC(=CC=C1)N1CCCC1=O] | 4.12 µM |  |
| c1ccc(-c2csc3nc(CN4CCOCC4)nc(NCCC4CCCO4)c23)cc1 (centres unmarked) [T5948460, C(CC1CCCO1)NC1=C2C(SC=C2C2=CC=CC=C2)=NC(CN2CCOCC2)=N1] | 2.33 µM |  |
| CCOc1ccc(C(=O)Nc2cc(C)ccc2F)cc1 [T5869032, CCOC1=CC=C(C=C1)C(=O)NC1=C(F)C=CC(C)=C1] | 1.1 µM |  |
| CC(=O)c1ccccc1NC(=O)CNc1ccccc1-c1ccccc1 [T5989502, CC(=O)C1=C(NC(=O)CNC2=C(C=CC=C2)C2=CC=CC=C2)C=CC=C1] | 1.94 µM |  |
| Clc1cccc(Nc2nc(CN3CCOCC3)nc3scc(-c4ccccc4)c23)c1 [T5363639, ClC1=CC(NC2=C3C(SC=C3C3=CC=CC=C3)=NC(CN3CCOCC3)=N2)=CC=C1] | 2 µM |  |
| c1csc(-c2csc3nc(CN4CCOCC4)nc(NN4CCCCC4)c23)c1 [T6026407, C(N1CCOCC1)C1=NC2=C(C(=CS2)C2=CC=CS2)C(NN2CCCCC2)=N1] | 2.73 µM |  |
| COc1ccc(S(=O)(=O)N(Cc2cccc(C(F)(F)F)c2)c2ccccc2OC)cc1 [T5407044, COC1=CC=C(C=C1)S(=O)(=O)N(CC1=CC(=CC=C1)C(F)(F)F)C1=C(OC)C=CC=C1] | 4.11 µM |  |
| Cc1cccc(C)c1NC(=O)CN1CCCC1c1nc2ccccc2s1 (centres unmarked) [T5823772, CC1=CC=CC(C)=C1NC(=O)CN1CCCC1C1=NC2=C(S1)C=CC=C2] | 8.88 µM |  |
| O=C(Nc1ccccc1N1CCCC1)c1cc(S(=O)(=O)N2CCOCC2)ccc1Cl [T6137813, ClC1=C(C=C(C=C1)S(=O)(=O)N1CCOCC1)C(=O)NC1=C(C=CC=C1)N1CCCC1] | 5.04 µM |  |

| SMILES | IC50 [1] | also measured |
| --- | --- | --- |
| Cc1nc(SCC(=O)NCCC(C)C)c(C#N)c(C)c1C [T5989363, CC(C)CCNC(=O)CSC1=C(C#N)C(C)=C(C)C(C)=N1] | 7.91 µM |  |
| N#Cc1ccccc1S(=O)(=O)N1CCC(CCc2ccccc2)CC1 [T5952497, O=S(=O)(N1CCC(CCC2=CC=CC=C2)CC1)C1=C(C=CC=C1)C#N] | 4.27 µM |  |
| c1ccc(CNc2nc(CN3CCOCC3)nc3scc(-c4cccs4)c23)cc1 [T5605915, C(NC1=C2C(SC=C2C2=CC=CS2)=NC(CN2CCOCC2)=N1)C1=CC=CC=C1] | 4.67 µM |  |
| O=S(=O)(c1ccc(Sc2ncnc3scc(-c4ccc(F)cc4)c23)nc1)N1CCOCC1 [T5643556, FC1=CC=C(C=C1)C1=CSC2=C1C(SC1=NC=C(C=C1)S(=O)(=O)N1CCOCC1)=NC=N2] | 6.19 µM |  |
| CCNC1=NN=C(c2cc(C)n(C3CC3)c2C)CS1 [T5633521, CCNC1=NN=C(CS1)C1=C(C)N(C2CC2)C(C)=C1] | 1.05 µM |  |
| Cc1cnc2c(S(=O)(=O)N3CCN(Cc4ccc5c(c4)OCCO5)CC3)cccc2c1 [T6332191, CC1=CC2=C(N=C1)C(=CC=C2)S(=O)(=O)N1CCN(CC2=CC3=C(OCCO3)C=C2)CC1] | 1.42 µM |  |
| CN(C1CCCCCC1)S(=O)(=O)c1cccc(C#N)c1 [T6302141, CN(C1CCCCCC1)S(=O)(=O)C1=CC(=CC=C1)C#N] | 2.24 µM |  |
| CC(=O)c1ccc(NC(=O)CNc2ccccc2-c2ccccc2)cc1 [T5941648, CC(=O)C1=CC=C(NC(=O)CNC2=C(C=CC=C2)C2=CC=CC=C2)C=C1] | 7.85 µM |  |
| O=c1c2ccccc2nc(CN2CCOCC2)n1Cc1nc(-c2ccc(F)cc2)cs1 [T5938605, FC1=CC=C(C=C1)C1=CSC(CN2C(CN3CCOCC3)=NC3=C(C=CC=C3)C2=O)=N1] | 8.71 µM |  |
| COc1ccc(OC)c(C2CCCN2C(=O)C2CC(=O)N(c3ccccc3)C2)c1 (centres unmarked) [T6517641, COC1=CC(C2CCCN2C(=O)C2CN(C(=O)C2)C2=CC=CC=C2)=C(OC)C=C1] | 6.83 µM |  |
| c1ccc(CCNc2nc(CN3CCOCC3)nc3scc(-c4cccs4)c23)nc1 [T6312425, C(CC1=NC=CC=C1)NC1=C2C(SC=C2C2=CC=CS2)=NC(CN2CCOCC2)=N1] | > 10 µM |  |
| CC(C)CCn1cnc2c1c(=O)n(CC(=O)NC(C)C)c(=O)n2Cc1ccccc1 [T5488769, CC(C)CCN1C=NC2=C1C(=O)N(CC(=O)NC(C)C)C(=O)N2CC1=CC=CC=C1] | 9.06 µM |  |
| CCNC(=O)COC(=O)c1c(C)c(-c2cccc(Cl)c2)nc2ccccc12 [T0516-3343, CCNC(=O)COC(=O)C1=C2C=CC=CC2=NC(=C1C)C1=CC(Cl)=CC=C1] |  | IC50 (read-out: IC50 (in µM), viral integration assay, Table S3, PM1-mCat1, dose-response hit profiling): 6.07 µM |
| COc1ccc(NS(=O)(=O)c2cccc(C(=O)NCC(c3ccc(OC)cc3)N3CCCCC3)c2)cc1 (centres unmarked) [T6213020, COC1=CC=C(NS(=O)(=O)C2=CC(=CC=C2)C(=O)NCC(N2CCCCC2)C2=CC=C(OC)C=C2)C=C1] | 2.79 µM |  |
| COC(=O)c1ccc(C(=O)Nc2ncc(C)s2)cc1 [T5650116, COC(=O)C1=CC=C(C=C1)C(=O)NC1=NC=C(C)S1] | 2.79 µM |  |
| c1csc(-c2csc3nc(CN4CCOCC4)nc(NCC4CCCO4)c23)c1 (centres unmarked) [T6061512, C(NC1=C2C(SC=C2C2=CC=CS2)=NC(CN2CCOCC2)=N1)C1CCCO1] | 6.48 µM |  |
| c1coc(-c2noc(CNc3ccccc3-n3cccn3)n2)c1 [T6671011, C(NC1=C(C=CC=C1)N1C=CC=N1)C1=NC(=NO1)C1=CC=CO1] | 4 µM |  |
| c1csc(-c2csc3nc(CN4CCOCC4)nc(N4CCCC4)c23)c1 [T5587925, C(N1CCOCC1)C1=NC2=C(C(=CS2)C2=CC=CS2)C(=N1)N1CCCC1] | 3.97 µM |  |
| CCn1c(SCC(=O)Nc2ccccc2C#N)nc2ccsc2c1=O [T6068357, CCN1C(=O)C2=C(C=CS2)N=C1SCC(=O)NC1=C(C=CC=C1)C#N] | 1.49 µM |  |
| CCc1ccc(-c2csc(Cn3c(CN4CCOCC4)nc4ccccc4c3=O)n2)cc1 [T5938606, CCC1=CC=C(C=C1)C1=CSC(CN2C(CN3CCOCC3)=NC3=C(C=CC=C3)C2=O)=N1] | 5.91 µM |  |
| N#Cc1ccccc1S(=O)(=O)N1CCN(Cc2ccc(-c3ccccc3)cc2)CC1 [T5432718, O=S(=O)(N1CCN(CC2=CC=C(C=C2)C2=CC=CC=C2)CC1)C1=C(C=CC=C1)C#N] | 6.33 µM |  |
| CCOc1ncccc1C(=O)OCc1nc(N)c2c(C)c(C)sc2n1 [T5776163, CCOC1=C(C=CC=N1)C(=O)OCC1=NC2=C(C(C)=C(C)S2)C(N)=N1] | 4.7 µM |  |
| O=C(Nc1ccccc1-n1cccn1)c1ccccc1Br [T6468172, BrC1=C(C=CC=C1)C(=O)NC1=C(C=CC=C1)N1C=CC=N1] | 1.04 µM |  |
| CC(Nc1nc(CN2CCOCC2)nc2sc3c(c12)CCC3)c1cccc(Cl)c1 (centres unmarked) [T5952126, CC(NC1=C2C3=C(CCC3)SC2=NC(CN2CCOCC2)=N1)C1=CC(Cl)=CC=C1] | 1.53 µM |  |
| Cc1oc(-c2ccccc2)nc1CN1CC(C(=O)N2CCCCC2)Oc2ccccc21 (centres unmarked) [T6329376, CC1=C(CN2CC(OC3=C2C=CC=C3)C(=O)N2CCCCC2)N=C(O1)C1=CC=CC=C1] | 4.83 µM |  |
| O=C(CSc1nnc(C2CC2)o1)NC(c1ccccc1)c1cccs1 (centres unmarked) [T5964141, O=C(CSC1=NN=C(O1)C1CC1)NC(C1=CC=CS1)C1=CC=CC=C1] | 1.26 µM |  |
